The compounds below were run against T1, HCV polymerase (Hepatitis C virus genotype 1b, UniProt P26663) (assay: biochemical).
T1 construct: a region encoding NS5B (J Virol 1991 March, 65(3), 1105-13, 544 amino acids after deletion of 47 amino acids on the C-terminal); 6xHis (C); made in house; host or cells: Escherichia coli
T1 sequence (P26663 2420-2963): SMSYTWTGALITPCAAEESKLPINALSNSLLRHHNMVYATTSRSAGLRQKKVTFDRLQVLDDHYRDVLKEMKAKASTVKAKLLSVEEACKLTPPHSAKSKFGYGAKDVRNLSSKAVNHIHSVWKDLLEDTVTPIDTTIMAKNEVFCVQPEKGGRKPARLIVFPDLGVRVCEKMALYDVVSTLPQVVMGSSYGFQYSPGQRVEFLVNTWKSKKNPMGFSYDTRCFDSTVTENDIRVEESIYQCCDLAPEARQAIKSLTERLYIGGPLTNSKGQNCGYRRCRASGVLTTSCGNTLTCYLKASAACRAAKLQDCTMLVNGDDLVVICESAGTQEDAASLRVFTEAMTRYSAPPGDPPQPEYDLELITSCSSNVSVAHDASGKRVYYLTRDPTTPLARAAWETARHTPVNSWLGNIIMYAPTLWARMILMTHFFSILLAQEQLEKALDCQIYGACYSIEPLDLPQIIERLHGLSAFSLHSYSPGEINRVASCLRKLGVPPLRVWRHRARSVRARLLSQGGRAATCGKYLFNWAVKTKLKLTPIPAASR
Design: species or system HCV BK strain
Method in brief: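 Recombinant HCV BK-strain NS5B (C-terminal 47 aa deleted, His6-tagged, E. coli), 0.5 μg/ml, run with 5 μg/ml in vitro-transcribed RNA template (polyU/3′X), ATP/GTP/CTP 50 μM, UTP 2 μM plus [3H]UTP, pH 7.5, 25° C, 90 min. TCA-precipitated RNA counted by scintillation; IC50 from activity with vs without compound.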
For `COc1ccc2c(c1)OCCn1c-2c(C2CCCCC2)c2ccc(C(=O)NC(C)(C)c3nc4cc(CCC(=O)O)ccc4[nH]3)cc21` [Example 2-412, 3-(2-{1-[(12-cyclohexyl-3-methoxy-6,7-dihydro-5-oxa-7a-azadibenzo[a,e]azulene-9-carbonyl)amino]-1-methylethyl}-1H-benzimidazol-5-yl)propionic acid], the IC50 was < 0.1 µM. `COc1ccc2c(c1)OCCn1c-2c(C2CCCCC2)c2ccc(C(=O)NC3(c4nc5cc(CO)c(OC)cc5[nH]4)CCC3)cc21` [Example 2-413, N-[1-(5-hydroxymethyl-6-methoxy-1H-benzimidazol-2-yl)cyclobutyl]-12-cyclohexyl-3-methoxy-6,7-dihydro-5-oxa-7a-azadibenzo[a,e]azulene-9-carboxamide] was tested, and the IC50 was < 0.1 µM. With `COc1ccc2c(c1)OCCn1c-2c(C2CCCCC2)c2ccc(C(=O)N[C@@H](Cc3ccc(N)cc3)c3csc(C)n3)cc21` [Example 2-414, N—[(S)-2-(4-aminophenyl)-1-(2-methylthiazol-4-yl)ethyl]-12-cyclohexyl-3-methoxy-6,7-dihydro-5-oxa-7a-azadibenzo[a,e]azulene-9-carboxamide] the IC50 was < 0.1 µM. In the case of `COC(=O)Nc1ccc(C[C@H](NC(=O)c2ccc3c(C4CCCCC4)c4n(c3c2)CCOc2cc(OC)ccc2-4)c2csc(C)n2)cc1` [Example 2-415, methyl (4-[(S)-2-[(12-cyclohexyl-3-methoxy-6,7-dihydro-5-oxa-7a-azadibenzo[a,e]azulene-9-carbonyl)amino]-2-(2-methylthiazol-4-yl)ethyl]phenyl}carbamate], the IC50 is reported as < 0.1 µM. `COc1ccc2c(c1)OCCn1c-2c(C2CCCCC2)c2ccc(C(=O)N[C@@H](Cc3ccc(O)cc3)C(=O)NC(C)(C)C(=O)O)cc21` [Example 2-416, 2-[(S)-2-[(12-cyclohexyl-3-methoxy-6,7-dihydro-5-oxa-7a-azadibenzo[a,e]azulene-9-carbonyl)amino]-3-(4-hydroxyphenyl)propionylamino]-2-methylpropionic acid] was tested, and the IC50 was < 0.1 µM. `COC(=O)COc1ccc2[nH]cc(C[C@H](NC(=O)c3ccc4c(C5CCCCC5)c5n(c4c3)CCOc3cc(OC)ccc3-5)c3csc(C)n3)c2c1` [Example 2-417, methyl {3-[(S)-2-[(12-cyclohexyl-3-methoxy-6,7-dihydro-5-oxa-7a-azadibenzo[a,e]azulene-9-carbonyl)amino]-2-(2-methylthiazol-4-yl)ethyl]-1H-indol-5-yloxy}acetate] was tested, and the IC50 was < 0.1 µM. For `COc1ccc2c(c1)OCCn1c-2c(C2CCCCC2)c2ccc(C(=O)NC(C)(C)c3nc4ccc(C(=O)N5CCN(C)CC5)cc4[nH]3)cc21` [Example 2-418, N-(1-methyl-1-[6-(4-methylpiperazine-1-carbonyl)-1H-benzimidazol-2-yl]ethyl}-12-cyclohexyl-3-methoxy-6,7-dihydro-5-oxa-7a-azadibenzo[a,e]azulene-9-carboxamide], the IC50 was < 0.1 µM. With `COc1ccc2c(c1)OCCn1c-2c(C2CCCCC2)c2ccc(C(=O)NC(C)(C)c3nc4ccc(C(=O)N5CCOCC5)cc4[nH]3)cc21` [Example 2-419, N-(1-methyl-1-[6-(morpholine-4-carbonyl)-1H-benzimidazol-2-yl]ethyl}-12-cyclohexyl-3-methoxy-6,7-dihydro-5-oxa-7a-azadibenzo[a,e]azulene-9-carboxamide] the IC50 was < 0.1 µM. With `COc1ccc2c(c1)OCCn1c-2c(C2CCCCC2)c2ccc(C(=O)NC3(c4nc5ccc(OCc6ccccc6)cc5[nH]4)CCC3)cc21` [Example 2-420, N-[1-(6-benzyloxy-1H-benzimidazol-2-yl)cyclobutyl]-12-cyclohexyl-3-methoxy-6,7-dihydro-5-oxa-7a-azadibenzo[a,e]azulene-9-carboxamide] the IC50 was < 0.1 µM. With `COc1ccc2c(c1)OCCn1c-2c(C2CCCCC2)c2ccc(C(=O)N[C@@H](Cc3c[nH]c4ccc(OCCO)cc34)c3csc(C)n3)cc21` [Example 2-421, N—[(S)-2-[5-(2-hydroxyethoxy)-1H-indol-3-yl]-1-(2-methylthiazol-4-yl)ethyl]-12-cyclohexyl-3-methoxy-6,7-dihydro-5-oxa-7a-azadibenzo[a,e]azulene-9-carboxamide] the IC50 was < 0.1 µM. In the case of `COc1ccc2c(c1)OCCn1c-2c(C2CCCCC2)c2ccc(C(=O)NC(C)(C)c3ccc(/C=C/C(=O)O)cc3)cc21` [Example 2-422, (E)-3-(4-{1-[(12-cyclohexyl-3-methoxy-6,7-dihydro-5-oxa-7a-azadibenzo[a,e]azulene-9-carbonyl)amino]-1-methylethyl}phenyl)acrylic acid], the IC50 is reported as < 0.1 µM. `COc1ccc2c(c1)OCCn1c-2c(C2CCCCC2)c2ccc(C(=O)NC(C)(C)c3ccc(CCC(=O)O)cc3)cc21` [Example 2-423, 3-(4-{1-[(12-cyclohexyl-3-methoxy-6,7-dihydro-5-oxa-7a-azadibenzo[a,e]azulene-9-carbonyl)amino]-1-methylethyl}phenyl)propionic acid] was tested, and the IC50 was < 0.1 µM. `COCCCOc1ccc(C[C@H](NC(=O)c2ccc3c(C4CCCCC4)c4n(c3c2)CCOc2cc(OC)ccc2-4)C(=O)OC)cc1` [Example 2-424, methyl (S)-2-[(12-cyclohexyl-3-methoxy-6,7-dihydro-5-oxa-7a-azadibenzo[a,e]azulene-9-carbonyl)amino]-3-[4-(3-methoxypropoxy)phenyl]propionate] was tested, and the IC50 was < 0.1 µM. In the case of `COc1ccc2c(c1)OCCn1c-2c(C2CCCCC2)c2ccc(C(=O)N[C@@H](Cc3ccc(NC(=O)N(C)C)cc3)C(=O)O)cc21` [Example 2-425, (S)-2-[(12-cyclohexyl-3-methoxy-6,7-dihydro-5-oxa-7a-azadibenzo[a,e]azulene-9-carbonyl)amino]-3-[4-(3,3-dimethylureido)phenyl]propionic acid], the IC50 is reported as < 0.1 µM. `CONC(=O)[C@H](Cc1ccc(O)cc1)NC(=O)c1ccc2c(C3CCCCC3)c3n(c2c1)CCOc1cc(OC)ccc1-3` [Example 2-426, N—[(S)-2-(4-hydroxyphenyl)-1-(methoxycarbamoyl)ethyl]-12-cyclohexyl-3-methoxy-6,7-dihydro-5-oxa-7a-azadibenzo[a,e]azulene-9-carboxamide] was tested, and the IC50 was < 0.1 µM. For `COc1ccc2c(c1)OCCn1c-2c(C2CCCCC2)c2ccc(C(=O)N[C@@H](Cc3ccc(O)cc3)C(=O)N(C)OC)cc21` [Example 2-427, N—[(S)-2-(4-hydroxyphenyl)-1-(N-methoxy-N-methylcarbamoyl)ethyl]-12-cyclohexyl-3-methoxy-6,7-dihydro-5-oxa-7a-azadibenzo[a,e]azulene-9-carboxamide], the IC50 was < 0.1 µM. `COc1ccc2c(c1)OCCn1c-2c(C2CCCCC2)c2ccc(C(=O)N[C@@H](Cc3ccc(OCc4ccccc4)cc3)c3noc(=O)[nH]3)cc21` [Example 2-428, N—[(S)-2-(4-benzyloxyphenyl)-1-(5-oxo-4,5-dihydro-1,2,4-oxadiazol-3-yl)ethyl]-12-cyclohexyl-3-methoxy-6,7-dihydro-5-oxa-7a-azadibenzo[a,e]azulene-9-carboxamide] was tested, and the IC50 was < 0.1 µM. In the case of `COc1ccc2c(c1)OCCn1c-2c(C2CCCCC2)c2ccc(C(=O)N[C@@H](Cc3ccc(O)cc3)c3noc(=O)[nH]3)cc21` [Example 2-429, N—[(S)-2-(4-hydroxyphenyl)-1-(5-oxo-4,5-dihydro-1,2,4-oxadiazol-3-yl)ethyl]-12-cyclohexyl-3-methoxy-6,7-dihydro-5-oxa-7a-azadibenzo[a,e]azulene-9-carboxamide], the IC50 is reported as < 0.1 µM. `COc1ccc2c(c1)OCCn1c-2c(C2CCCCC2)c2ccc(C(=O)N[C@@H](Cc3ccc(OC(C)=O)cc3)c3noc(=O)[nH]3)cc21` [Example 2-430, 4-[(S)-2-[(12-cyclohexyl-3-methoxy-6,7-dihydro-5-oxa-7a-azadibenzo[a,e]azulene-9-carbonyl)amino]-2-(5-oxo-4,5-dihydro-1,2,4-oxadiazol-3-yl)ethyl]phenyl acetate] was tested, and the IC50 was < 0.1 µM. With `COc1ccc2c(c1)OCCn1c-2c(C2CCCCC2)c2ccc(C(=O)N[C@@H](Cc3ccc(OC(C)=O)cc3)C3=NC(C)(C)C(=O)O3)cc21` [Example 2-431, 4-[(S)-2-[(12-cyclohexyl-3-methoxy-6,7-dihydro-5-oxa-7a-azadibenzo[a,e]azulene-9-carbonyl)amino]-2-(4,4-dimethyl-5-oxo-4,5-dihydrooxazol-2-yl)ethyl]phenyl acetate] the IC50 was < 0.1 µM. For `COc1ccc2c(c1)OCCn1c-2c(C2CCCCC2)c2ccc(C(=O)NC(C)(C)c3nc4ccccc4n3CCN3CCOCC3)cc21` [Example 2-432, N-(1-methyl-1-{1-[2-(morpholin-4-yl)ethyl]-1H-benzimidazol-2-yl}ethyl)-12-cyclohexyl-3-methoxy-6,7-dihydro-5-oxa-7a-azadibenzo[a,e]azulene-9-carboxamide], the IC50 was < 0.1 µM. For `COc1ccc2c(c1)OCCn1c-2c(C2CCCCC2)c2ccc(C(=O)NC(C)(C)c3nc4ccccc4n3CCO)cc21` [Example 2-433, N-{1-[1-(2-hydroxyethyl)-1H-benzimidazol-2-yl]-1-methylethyl}-12-cyclohexyl-3-methoxy-6,7-dihydro-5-oxa-7a-azadibenzo[a,e]azulene-9-carboxamide], the IC50 was < 0.1 µM. For `COCCn1c(C(C)(C)NC(=O)c2ccc3c(C4CCCCC4)c4n(c3c2)CCOc2cc(OC)ccc2-4)nc2ccccc21` [Example 2-434, N-{1-[1-(2-methoxyethyl)-1H-benzimidazol-2-yl]-1-methylethyl}-12-cyclohexyl-3-methoxy-6,7-dihydro-5-oxa-7a-azadibenzo[a,e]azulene-9-carboxamide], the IC50 was < 0.1 µM. For `CCOC(=O)[C@H](Cc1ccc(O)cc1)NC(=O)c1ccc2c(C3CCCCC3)c3n(c2c1)CCOc1cc(OC)ccc1-3` [Example 2-435, ethyl (S)-2-[(12-cyclohexyl-3-methoxy-6,7-dihydro-5-oxa-7a-azadibenzo[a,e]azulene-9-carbonyl)amino]-3-(4-hydroxyphenyl)propionate], the IC50 was < 0.1 µM.

— patent US20070049593A1 (priority 2004, published 2007)
